Source: patent US10925851B2 (Regents of the University of Minnesota, priority 2018, dated 2021)
Several values for one entry are separate records, joined by “and”; a condition that tells them apart may be missing. Equal entries are not always repeated. Where two headings read alike, the source gives them in different places.

Assays:
Neprilysin (NEP) = biological target: T1, Neprilysin (NEP) (Homo sapiens, UniProt P08473); assay: Neprilysin inhibition assay (Mca-[…](Dpn) FRET substrate); type: biochemical; details: for IC50: dose response, 3x dilutions from 100 μM; for inhibition at 10 µM: inhibitor 10 μM, read-out: NEP @ 10 μM (percent inhibition)
T1 construct: purchased Enzo Life Sciences
T1 sequence (P08473 whole entry, species assumed): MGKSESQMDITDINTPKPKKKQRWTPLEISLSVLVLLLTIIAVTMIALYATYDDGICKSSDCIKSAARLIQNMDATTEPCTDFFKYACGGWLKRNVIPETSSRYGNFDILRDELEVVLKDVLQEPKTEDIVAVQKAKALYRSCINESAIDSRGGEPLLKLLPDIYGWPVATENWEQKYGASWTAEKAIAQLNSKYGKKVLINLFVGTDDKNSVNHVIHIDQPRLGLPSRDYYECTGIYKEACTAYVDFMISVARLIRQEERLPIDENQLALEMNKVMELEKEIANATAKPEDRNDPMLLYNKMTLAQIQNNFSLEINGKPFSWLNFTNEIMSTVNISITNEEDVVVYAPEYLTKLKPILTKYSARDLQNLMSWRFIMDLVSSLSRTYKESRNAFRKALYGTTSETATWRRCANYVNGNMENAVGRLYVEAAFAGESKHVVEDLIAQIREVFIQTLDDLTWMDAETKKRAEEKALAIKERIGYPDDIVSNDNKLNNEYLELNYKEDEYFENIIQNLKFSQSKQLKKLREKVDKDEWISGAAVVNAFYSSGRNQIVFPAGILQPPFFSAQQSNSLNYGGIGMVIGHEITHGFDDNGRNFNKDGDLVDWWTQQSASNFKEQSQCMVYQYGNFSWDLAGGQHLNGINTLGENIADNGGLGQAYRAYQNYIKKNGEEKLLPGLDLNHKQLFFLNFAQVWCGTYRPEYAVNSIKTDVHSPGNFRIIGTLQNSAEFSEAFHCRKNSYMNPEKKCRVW
Protocol: Single concentration studies at 10 μM: Neprilysin inhibition assays were performed as described previously. The substrate Mca-[…](Dpn) and endopeptidase NEP were purchased from Enzo Life Sciences. […] Plate was mixed with a plate shaker at 1500 rpm for 30 seconds. The reaction was started with the addition of 6 μM of the FRET substrate and mixed for another 30 seconds at 1500 rpm. Mca fluorescence is quenched by Dpn until cleavage at Phe by NEP. The accumulation of the Mca was measured by exciting at 320 nm and reading the fluorescence at 405 nm on a Molecular Devices M5e plate reader for 40 minutes at room temperature. Percent inhibition is calculated in GraphPad Prism software using slopes in the linear range for each inhibitor at 10 μM.
Dose-Response Studies for NEP: Neprilysin inhibition assays were performed as described previously. The substrate Mca-[…](Dpn) and endopeptidase NEP were purchased from Enzo Life Sciences. Briefly, 0.5 nM NEP was incubated with 0.5 μL inhibitor. Compounds were tested at 3× dilutions from 100 μM final concentration in 50 mM HEPES pH 6.5 in 50 μL total volume in a black 384-well plate. Plate was mixed with a plate shaker at 1500 rpm for 30 seconds. The reaction was started with the addition of 6 μM of the FRET substrate and mixed for another 30 seconds at 1500 rpm. Mca fluorescence is quenched by Dpn until cleavage at Phe by NEP. The accumulation of the Mca was measured by exciting at 320 nm and reading the fluorescence at 405 nm on a Molecular Devices M5e plate reader for 40 minutes at room temperature. Steady state velocities were used to determine IC50 values by fitting the velocities vs. inhibitor concentration to the sigmoidal concentration-response curve (variable slope) using GraphPad Prism.

Aminopeptidase N (APN) = biological target: T2, Aminopeptidase N (APN) (Homo sapiens, UniProt P15144); assay: Aminopeptidase N enzyme assay (Ala-AMC substrate, fluorescence); type: biochemical; details: for inhibition at 10 µM: inhibitor 10 μM, read-out: APN @ 10 μM (percent inhibition); for IC50: dose response, 3x dilutions from 100 μM
T2 construct: purchased R&D Systems
T2 sequence (P15144 whole entry): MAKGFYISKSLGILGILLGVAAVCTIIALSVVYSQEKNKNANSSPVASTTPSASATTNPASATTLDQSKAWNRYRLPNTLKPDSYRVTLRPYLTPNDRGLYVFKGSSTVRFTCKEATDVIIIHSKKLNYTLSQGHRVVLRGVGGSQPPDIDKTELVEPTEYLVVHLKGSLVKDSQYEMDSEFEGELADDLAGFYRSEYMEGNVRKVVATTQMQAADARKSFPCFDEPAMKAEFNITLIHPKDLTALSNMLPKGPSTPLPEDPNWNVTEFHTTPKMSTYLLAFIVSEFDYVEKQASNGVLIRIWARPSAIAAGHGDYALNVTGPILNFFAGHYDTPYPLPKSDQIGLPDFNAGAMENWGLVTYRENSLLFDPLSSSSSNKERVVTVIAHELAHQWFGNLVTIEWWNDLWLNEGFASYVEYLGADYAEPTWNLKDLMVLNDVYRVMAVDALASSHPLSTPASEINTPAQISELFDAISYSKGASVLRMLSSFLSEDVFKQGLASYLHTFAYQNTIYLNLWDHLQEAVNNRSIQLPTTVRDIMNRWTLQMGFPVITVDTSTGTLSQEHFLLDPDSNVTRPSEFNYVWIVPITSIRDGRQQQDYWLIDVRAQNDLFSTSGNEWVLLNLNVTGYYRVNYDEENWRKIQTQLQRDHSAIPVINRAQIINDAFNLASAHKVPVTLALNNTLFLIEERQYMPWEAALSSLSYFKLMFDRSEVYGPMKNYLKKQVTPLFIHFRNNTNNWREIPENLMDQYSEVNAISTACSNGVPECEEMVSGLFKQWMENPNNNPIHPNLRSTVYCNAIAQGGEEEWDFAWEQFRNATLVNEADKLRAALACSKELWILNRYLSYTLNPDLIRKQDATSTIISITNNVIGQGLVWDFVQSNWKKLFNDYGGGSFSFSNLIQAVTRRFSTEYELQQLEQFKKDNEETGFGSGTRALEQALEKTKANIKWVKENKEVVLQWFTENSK
Protocol: Single concentration studies at 10 μM: Aminopeptidase N assays were performed as described previously. Aminopeptidase N was purchased from R&D Systems. Amino-4-methylcoumarin (Ala-AMC) was purchased from Bachem. Briefly, 0.1 μg/μL APN was incubated with 1 μL of 1 mM inhibitor in 50 mM Tris buffer, pH 7.5, in 100 μL volume in a black 384-well plate in duplicate. The reaction was started with the addition of Ala-AMC substrate at a final concentration of 100 μM. The cleavage accumulation AMC was measured by exciting at 380 nm and reading the fluorescence at 460 nm on a Molecular Devices SpectraMax i3 plate reader for 20 min at room temperature. Percent inhibition is calculated in GraphPad Prism software using slopes in the linear range for each inhibitor at 10 μM.
Dose-Response Studies for APN: Aminopeptidase N enzyme assays were performed as described previously.^26 Briefly, 0.1 μg/μL APN was incubated with 1 μL inhibitor in 50 mM Tris buffer, pH 7.5, in 50 μL volume in a black 384-well plate in duplicate. Compounds were tested at 3× dilutions from 100 μM final concentration. The reaction was started with the addition of Ala-AMC substrate at a final concentration of 100 μM. The accumulation of AMC was measured by exciting at 380 nm and reading the fluorescence at 460 nm on a Molecular Devices SpectraMax i3 plate reader for 30 min at room temperature. Steady state velocities were used to determine IC50 values by fitting the velocities vs. inhibitor concentration to the sigmoidal concentration-response curve (variable slope) using GraphPad Prism.

mice [1] = assay: Co-administration of opioid antagonist naloxone in hot-plate and tail-flick assays; type: in vivo, mouse; details: naloxone s.c. 5 mg/Kg or i.c.v. 5 μg per mouse
Protocol: Naloxone dissolved in saline was either administered subcutaneously (s.c.; dosage: 5 mg/Kg) via an injection to the interscapular skin, or it was given intracerebroventricularly (5 μg per mouse).
Naloxone is a broad-spectrum opioid receptor antagonist. It is known to interact with, mu- (μ-), delta- (δ-), and kappa- (κ-) opioid receptors, with highest affinity for the μ receptors. […] Naloxone dissolved in saline was delivered subcutaneously (s.c.) via an injection to the interscapular skin.
5 mg/Kg naloxone dissolved in saline was administered subcutaneously (s.c.) via an injection to the interscapular skin. Analgesic efficacy for various time-points was determined in hot-plate and tail-flick assays as detailed above.

mice [2] = assay: Combination therapy with morphine, isobolographic analysis in tail-flick assay; details: for Dose Reduction Index (DRI) Morphine: in combination with tosedostat, 50% efficacy; for ED50: Mus musculus, sc

Compound | activity against NEP (in words) (Neprilysin (NEP)) | IC50 (Neprilysin (NEP)) [µM] | inhibition at 10 µM (Neprilysin (NEP)) [%] | activity against APN (in words) (Aminopeptidase N (APN)) | inhibition at 10 µM (Aminopeptidase N (APN)) [%] | IC50 (Aminopeptidase N (APN)) | further results
CC(C)C[C@H](NC(=O)[C@@H](O)[C@H](N)Cc1ccccc1)C(=O)O [Bestatin] | no activity against NEP | > 100 | 0 | inhibiting only APN | 77.6 | – | –
O=C(O)CNC(=O)C(CS)Cc1ccccc1 (centres unmarked) [Thiorphan] | inhibited only NEP | – | 90 | no activity against APN | 0 | > 100 µM | –
C=CCN1CC[C@]23c4c5ccc(O)c4O[C@H]2C(=O)CC[C@@]3(O)[C@H]1C5 [Naloxone] | – | – | – | – | – | – | effect on latency, naloxone only groups (mice [1]): no effect on latency
CN1CC[C@]23c4c5ccc(O)c4O[C@H]2[C@@H](O)C=C[C@H]3[C@H]1C5 [Morphine] | – | – | – | – | – | – | Dose Reduction Index (DRI) Morphine (mice [2]; 15 min): 4.47; Dose Reduction Index (DRI) Morphine (mice [2]; 30 min): 1.96; Dose Reduction Index (DRI) Morphine (mice [2]; 45 min): 2.43; Dose Reduction Index (DRI) Morphine (mice [2]; 60 min): 17.0; Dose Reduction Index (DRI) Morphine (mice [2]; 60 min, listed as morphine): 17; ED50 (mice [2]; 0.25 h, read-out: Morphine ED50 (±SEM)): 6.29 ± 12.7 mg/kg; ED50 (mice [2]; 0.5 h, read-out: Morphine ED50 (±SEM)): 3.52 ± 7.2 mg/kg; ED50 (mice [2]; 0.75 h, read-out: Morphine ED50 (±SEM)): 3.87 ± 2.04 mg/kg; ED50 (mice [2]; 1 h, read-out: ED50, given alone): 2.5 to 3 mg/kg; ED50 (mice [2]; 1 h, read-out: Morphine ED50 (±SEM)): 30 ± 204 mg/kg
CNC(=O)[C@H](Cc1ccccc1)NC(=O)[C@H](CC(C)C)[C@H](CSc1cccs1)C(=O)NO [Batimastat] | inhibit both APN and NEP | 4.48 | 60 | inhibit both APN and NEP | – | 0.21 µM and 0.212 µM | –
